Type in all cases: cell-based
The subject of data set [1] is Candida albicans wild type strain SN250. As to the kind of experiment: Screen for inhibition of Candida albicans lawn formation (halo) on solid YPD plates. The conditions noted are these: for inhibition of C. albicans growth (halo formation) on YPD plates: 5 μl of 10 mM drug on fungal lawn, 25° C. and 37° C. Here is the method: (§1) C. albicans was plated on solid YPD and serum plates, and 5 μl of each 10 mM drug was placed on top of the fungal lawn. The effect of exposure to each of the compounds from the library was assayed for its ability to inhibit C. albicans growth, as well as ability to form a halo within the fungal lawn. […] (FIG. 1A).
(§2) High-throughput Screening Assay: The sensitivity of C. albicans against compounds was assessed by a high-throughput chemical screen. 200 μl of C. albicans overnight culture were spread onto petri dishes containing either YPD or fetal bovine serum. 5 μl of each drug was placed directly on the agar surface using a multichannel pipette and slight contact of the tip to the agar made to leave an impression to facilitate later analysis. Compounds that were replicated were done on petri dishes, following the same protocol in at least five independent experiments. For the replication studies, only a single drug was placed per plate. The plates were incubated at either 25° C. or 37° C.

Data set [2] has the same test system. Kind of data set: Screen for inhibition of Candida albicans lawn formation (halo) on solid serum (FBS agar) plates. The conditions noted are these: 5 μl of 10 mM drug on fungal lawn, 25° C. and 37° C. Here is the method:
as §1
Media and Growth Conditions: C. albicans strains were cultured with 5 ml of YPD (1% yeast extract, 2% peptone, 2% dextrose, pH 6) medium at 30° C. overnight. Bacterial cells were cultured in LB (Luria-Bertani) medium consisting of 5 g Bacto-Tryptone, 2.5 g Bacto-Yeast Extract, 5 g NaCl and 7.5 g of 2% agar if preparing solid plates. The centrifuge tubes were incubated at 37° C. and left shaking overnight at 150 rpm. Fetal bovine serum was incorporated into agar. Fetal bovine serum was preheated in a water bath set at 65° C. […] The agar solution for the serum mixture consisted of 16 g agar, which was then brought up to 300 ml with nanopure water. The agar solution was then autoclaved at 120° C. for 45 minutes. The agar and serum mixtures were then amalgamated while in their isothermal states.
as §2

In data set [3] the test system is Candida albicans knock-out mutants. Kind of data set: Genotypic mutant screening against Octodrine (three knockout libraries, 908 mutant strains). The conditions noted are these: 5 μl of 10 mM drug on YPD plates, 30° C. overnight. The procedure: In order to identify C. albicans proteins and signaling pathways that mediate the lethality of Octodrine, three C. albicans knockout libraries were screened for any alterations in sensitivity to 10 mM Octodrine—collectively consisting of 908 mutant strains each strain lacking one of the virulence genes. These libraries consisted of 647 mutant strains lacking one of the essential virulence genes (Noble, S M et al., 2010, Nat Genet 42:590-598, the entire content of which is herein incorporated by reference); 96 cell wall protein mutants (Norice, C T et al., 2007, Eukaryot Cell 6:2046-2055, the entire content of which is herein incorporated by reference); and 165 transcription factors mutants (Nobile, C J et al., 2005, Curr Biol 15:1150-1155, the entire content of which is herein incorporated by reference).
Genotypic Mutant Screening Against Octodrine: Each C. albicans knockout strain was cultured in individual wells of a 96 well plate in 100 μl of YPD media overnight at 30° C. 5 μl of each Candida knock-out overnight culture was spotted onto a YPD solid plate using a multichannel pipette. The cells were then left to absorb into the YPD plates for 1 hour at 25° C. Using a multichannel pipette, 5 μl of Octodrine 10 mM was spotted directly on top of the C. albicans cells. The plates were then placed in an incubator set at 30° C. and left overnight. […]

Data set [4] deals with Escherichia coli strain C600. Kind of data set: Halo formation in bacterial lawn, gram-negative bacteria. To be noted: 5 μl of neat form (3 mg of undiluted). An excerpt:
(§3) In order to test if Octodrine kills microorganisms by targeting their non-protein cellular components, Escherichia coli and Bacillus cereus, gram-negative and gram-positive bacteria respectively, were exposed to Octodrine.
(§4) Candida albicans and Bacterial Strains: The Candida albicans wild type strain SN250 was used for the high-throughput screening experiments. The bacterial strain consisted of Bacillus cereus strain 10987 and Escherichia coli strain C600. The genotypic screen for mutant sensitivity to Octodrine was tested with three C. albicans libraries that were previously created as disclosed in Noble, 2010, supra; Rauceo, J M et al., 2008, Mol Biol Cell 19:2741-2751; and Homann, O R et al., 2009, PLoS Genet 5:e1000783, the entire contents of all of which are herein incorporated by reference.
(§5) Media and Growth Conditions: C. albicans strains were cultured with 5 ml of YPD (1% yeast extract, 2% peptone, 2% dextrose, pH 6) medium at 30° C. overnight. Bacterial cells were cultured in LB (Luria-Bertani) medium consisting of 5 g Bacto-Tryptone, 2.5 g Bacto-Yeast Extract, 5 g NaCl and 7.5 g of 2% agar if preparing solid plates. The centrifuge tubes were incubated at 37° C. and left shaking overnight at 150 rpm. Fetal bovine serum was incorporated into agar. Fetal bovine serum was preheated in a water bath set at 65° C. […]

Data set [5] has as its system Candida albicans wild type strain SN250. Kind of data set: Screen for inhibition of Candida albicans lawn formation (halo) on solid serum (FBS agar) plates. To be noted: 5 μl of undiluted (neat) drug, approximately 3 mg, middle of serum-grown lawn.
Data set [6] has as its system Bacillus cereus strain 10987. As to the kind of experiment: Halo formation in bacterial lawn, gram-positive bacteria. To be noted: 5 μl of neat form (3 mg of undiluted).
Description: as §3, §4, §5

For data set [7], the system named is RAW264.7 mouse macrophage cells. As to the kind of experiment: Mammalian cell survival assay (MTT). The conditions noted are these: RAW264.7, 1 μl of 10 mM drug in 100 μl media with two-fold dilutions, 24 hours. The procedure:
Mammalian cell culture, drug treatment, and survival assay: RAW264.7 mouse macrophage cells were maintained in DMEM (Dulbecco's Modified Eagle Medium, Sigma-Aldrich) supplemented with 10% FBS (fetal bovine serum, Bioexpress) and 100 μg/mL penicillin and 100 μg/mL streptomycin. RAW264.7 cells (10,000 per well) were seeded in 96-well plates (100 μL/well) 24 hours before the assay. During the assay, 1 μl of 10 mM drug was added to 100 μl of cell-containing media. Two-fold serial dilutions of the media were performed. Cells were treated with drugs for 24 hours, and determination of cell viability by 3-(4,5-dimethylthiazol-2-yl)-2,5-diphenyltetrazolium bromide (MTT) assay was performed as described in Lu et al., 2004, Proc Natl Acad Sci USA 101:17246-17251, the entire content of which is herein incorporated by reference.
Each data point shown in the figure for MTT assays represents the average of results from at least two wells in each of at least two separate experiments. Cell viability is shown as the percentage of survivors obtained relative to untreated cells (100%).

“Also recorded” adds a separate entry of the source.

On to `O=C1C2CC=CCC2C(=O)N1SC(Cl)(Cl)Cl` (stereo not drawn) [Captan], for which the “inhibition of C. albicans growth (halo formation) on YPD plates” value (from here on “inhibition … on YPD plates”) in data set [1] is listed as “strong inhibition”.
Regarding `Cc1ccc2c(Cl)cc(Cl)c(O)c2n1` [Chlorquinaldol], the “inhibition of C. albicans growth (halo formation) on serum plates” value (shortened to “inhibition … on serum plates”) in data set [2] is “strongest inhibition”.
As for `Clc1ccccc1C(c1ccccc1)(c1ccccc1)n1ccnc1` [Clotrimazole], in data set [2], the “inhibition … on serum plates” value was “weak inhibition”. For the same molecule, in data set [1], the “inhibition … on YPD plates” value is “strong inhibition”.
With `OC(Cn1cncn1)(Cn1cncn1)c1ccc(F)cc1F` [Fluconazole], the “inhibition … on serum plates” value in data set [2] is “weak inhibition”. The figures for the “inhibition … on YPD plates” value in data set [1] and in data set [1] (listed as fluconazole) were “strong inhibition” and “effective inhibitor; also recorded: prominent halos”, respectively. The “effectiveness at forming halos at 37° C. compared to 25° C.” value in data set [1] (5 μl of 10 mM drug, 37° C. versus 25° C.) was “diminished effectiveness”.
Regarding `CC(C)n1c(/C=C/C(O)CC(O)CC(=O)O)c(-c2ccc(F)cc2)c2ccccc21` (stereo not drawn) [Fluvastatin], in data set [2], the “inhibition … on serum plates” value is listed as “failed to inhibit”.
Take `Clc1ccc(COC(Cn2ccnc2)c2ccc(Cl)cc2Cl)c(Cl)c1` (stereo not drawn) [Miconazole]: the “inhibition … on serum plates” value in data set [2] is recorded as “weak inhibition”. In data set [1], the “inhibition … on YPD plates” value is “strong inhibition”.
With `COc1c(C)c2c(c(O)c1C/C=C(\C)CCC(=O)O)C(=O)OC2` [Mycophenolic acid], the “inhibition … on serum plates” value in data set [2] is given as “failed to inhibit”. The “inhibition … on YPD plates” value in data set [1] is recorded as “very strong inhibition”.
As for `O=[N+]([O-])c1ccc(/C=N/O)o1` [Nifuroxime], the “inhibition … on serum plates” value in data set [2] is given as “weaker inhibition”.
The same measure, in the same setting: for `O=[N+]([O-])c1ccc(O)c2ncccc12` [Nitroxoline] the value was “weaker inhibition”; for `CCCCCCCC(=O)O` [Octanoic acid], “weaker inhibition”.
As for `CC(C)CCCC(C)N` (stereo not drawn) [Octodrine, 6-methylheptan-2-amine], the “sensitivity of C. albicans knockout mutants relative to wild type” value in data set [3] is “as sensitive as their wild type strains; also recorded: no C. albicans mutants (FIG. 3) showed a decrease in sensitivity”. The “halo formation in E. coli lawn” value in data set [4] is listed as “formed prominent halos; also recorded: capable of killing”. The “inhibition … on serum plates” value in data set [2] is “strong fungal growth inhibition; also recorded: prominent ability to kill; also recorded: most prominent drug that killed C. albicans in serum; also recorded: best Candida growth inhibition”. Besides, the “elimination of serum-grown Candida lawn by undiluted drug” value in data set [5] was “sufficient to eliminate most of the whole fungal lawn”. The “halo formation in B. cereus lawn” value in data set [6] was “formed prominent halos; also recorded: capable of killing”. Besides, in data set [7], the “survival of mouse macrophages (cell viability relative to untreated cells)” value is given as “the same as to the DMSO alone; also recorded: did not affect the sensitivity”. In addition, the “inhibition … on YPD plates” value in data set [1] is “moderate-to-weak anti-Candida activity and mild”.
Turning to `[O-][n+]1ccccc1[S-].[O-][n+]1ccccc1[S-].[Zn+2]` [Pyrithione Zinc], in data set [2], the “inhibition … on serum plates” value is given as “weak inhibition”. Moreover, the “inhibition … on YPD plates” value in data set [1] is reported as “strong inhibition”.
As for Antimycin A, in data set [2], the “inhibition … on serum plates” value is listed as “weak inhibition”. In addition, the “inhibition … on YPD plates” value in data set [1] is recorded as “strong inhibition”.

The values are drawn from patent publication US9439876B2, “Method of treating microbial infections” (priority 2014, dated 2016).
